The source of these data is patent US6518259B1, “Compositions for treating autoimmune disease” (The Regents of the University of Michigan, priority 1998, dated 2003).

Where a SMILES comes first, the peptide text is derived from it. The star is where a group is joined. Cbz = O=C(OCc1ccccc1)*; CH2F = FC*

What all share (type): cell-based, human
Experiment [1] concerns EBV transformed B cell lines from RA patients. Put plainly: Anti-Fas antibody CH-11-induced apoptosis of EBV transformed target cells, TUNEL assay. Conditions: prior incubation of target cells (2.5 μM DMS), 8 hr CH-11 100 ng/ml, serum-free RPMI 1640, FIG. 5B. The protocol:
In some of the examples below, the TUNEL assay was used. TdT-mediated dUTP-biotin nick end-labeling (TUNEL) assay was performed as described [see (Gorczyca, W, et al. Leukemia 7, 659-70 (1993)]. Briefly, cells were fixed in 1% buffered formaldehyde (pH 7.4) for 15 min on ice, washed in phosphate-buffered saline (PBS) and stored at 4° C. in 70% ethanol. Subsequently, cells were resuspended in 50 μl of a solution containing: 5 unites of terminal deoxynucleotidyl transferase (Boehringer Mannheim, Indianapolis, Ind.), 2.5 mM CoCl2,0.2 M potassium cacodylate, 25 mM Tris-HCl, 0.25 mg/ml bovine serum albumin, 0.5 nmoles biotin-16-dUTP (Boehringer Mannheim Biochemicals, Indianapolis, Ind.). […] Green (b-dUTP) and red (DNA) fluorescence of individual cells were measured with an EPICS Elite Flow Cytometer (Coulter, Hialeah. Fla., USA).
SPP, a potent derivative of sphingosine, has been recently shown to activate a pertussis toxin-sensitive G protein and to inhibit Fas-mediated cell death, Therefore, the ability of SPP to inhibit apoptosis in RA lymphocytes was investigated Apoptosis induced by 8 hr stimulation with the anti-Fas antibody CH-11 (100 ng/ml) was determined in EBV transformed target cells in the presence FIG. 5B, dashed bars) or absence (FIG. 5B, open bars) of 2.5 μM DMS in serum-free RPMI 1640 medium supplemented with insulin and transferrin. […]

The subject of experiment [2] is EBV transformed B cell targets from RA patients. Briefly: Cytolysis of EBV transformed target cells by Vγ9/Vδ2 T cells, 4 hr 51Cr release assay. The protocol: Fas-mediated cell death in-vivo is thought to be triggered, primarily, by cytotoxic T cells. […] However, susceptibility to cytolysis is markedly different between the two groups when determined using standard 4 hour ^51Cr release assays. FIG. 2C is a bar graph showing the susceptibility to cytolysis by Vγ9/Vδ2 T cell clones determined in EBV transformed lines from 23 normal controls, 18 patients with RA, 6 patients with pauciarticular-onset juvenile arthritis (“pJA”), and 3 patients with autoimmune thyroiditis. Lymphoblastoid target lines from all 23 normal controls tested were efficiently killed by Vγ9/Vδ2 clones, while none of the lines from 18 RA patients were susceptible. […]
Inhibition of Fas-mediated death signaling by SPP was also examined using γδ […]. Cytolysis of EBV transformed target cells by Vγ9/Vδ2 T cells was determined by 4 hr ^51Cr release assay (FIG. 5C) in the presence (●) or absence (∘) of 2.5 μM DMS. At the end of incubation, targets were washed and susceptibility to killing by γδ T cells was assessed.
Additionally, pre-incubating RA targets with pertussis toxin reversed their resistance to Fas-mediated and γδ T cell-mediated killing (FIGS. 5D and 5E). […] Cell death was determined using the commercial MTS kit (Promega, Madison, Wis.). […]

The subject of experiment [3] is RA EBV transformed target cells. Put plainly: Anti-Fas antibody CH-11-induced apoptosis of RA EBV transformed target cells with MEK1 inhibitor. The settings on record: 16 hr CH-11 200 ng/ml, FIG. 6. The protocol: As noted above, it is not intended that the present invention be limited to any one inhibitor. In this example, resistance to Fas-mediated cell killing is shown to be reversed by preincubation of target cells with a MEK1 inhibitor. Apoptosis of RA EBV transformed target cells was induced by 16 hr stimulation with anti-Fas antibody CH-11 (200 ng/ml) in the presence (FIG. 6, black bars) or absence (FIG. 6, open bars) of 100 µM of the MEK1 inhibitor 2-(2′-amino3′-methoxyphenyl-oxanaphthalen-4-one) (PD098059).

Experiment [4] has as its system caspases (CPP32, PARP cleavage). Briefly: Western blot of CPP32 and PARP cleavage after anti-Fas antibody stimulation, with or without caspase inhibitor. Conditions: preincubated 1 hr with 40 μM, then 100 ng/ml anti-Fas antibody. The protocol:
In some examples below, Western blots were performed. For Western blot analysis, 5×10^6 cells were washed and suspended in 100 μl of lysis buffer [1% sodium dodecyl sulfate (SDS), 1 mM sodium vanadate, 10 mM Tris (pH 7.6)], and boiled for 5 min. After micro-centrifugation at 14,000 rpm, for 10 min, supernatants (cell lysates) were recovered. The protein concentration of the lysates was determined with bicinchoninic acid (BCA) protein assay reagent (Pierce). For CPP32 immunoblots, cell lysates (10-20 μg of protein per lane) were separated on 15% SDS-polyacrylamide gels under reducing conditions, transferred to polyvinylidene difluoride (PVDF) membranes (Millipore), and probed with mouse monoclonal anti-CPP32 (clone #19, IgG2a, from Signal Transduction Labs, Lexington, Ky.) followed by sheep F(ab′)2 fragment horseradish peroxidase-conjugated, anti-mouse Ig (Amersham). For PARP immunoblots, cell lysates (10 μg of protein per lane) were separated on 7.5% SDS-polyacrylamide gels, transferred to PVDF membrane, and probed with monoclonal mouse anti-human PARP antibody C2.10 (IgG1, Enzyme Systems Products Dublin, Calif.). Antibody binding was detected with an ECL detection system (Amersham).
Briefly, cells were preincubated for 1 hr in the presence or absence of 40 μM of Z-VAD-fmk, and subsequently incubated with 100 ng/ml of the anti-Fas antibody […]. At different time points thereafter, cells were collected, lysed and a Western blot analysis performed with the relevant antibodies.

The subject of experiment [5] is EBV transformed B cell lines from RA patients. Briefly: Anti-Fas antibody CH-11-mediated killing of EBV transformed B cell lines, MTS kit. Conditions: preincubation 1 μg/ml for 1 hr, CH-11 100 ng/ml over a time course, FIG. 5D. The protocol: In this example, the susceptibility of lymphocytes to cell death is examined. As noted above, it is believed that prevention of immune-mediated self injury requires prompt elimination of activated lymphocytes at the end of an immune response. […] Briefly, PHA T cell lymphoblasts from 6 normal controls and 6 RA patients were established by stimulating peripheral blood mononuclear cells with 0.5 μg/ml PHA for 3 days, followed by expansion in 20 U/ml of recombinant human IL-2 (Collaborative Biomedical Products, Bedford, Mass.). Day-10 T cell lymphoblasts were incubated with 125 ng/ml of the agonist anti-Fas monoclonal antibody CH-11 (the antibody was immobilized and 1×10^5 cells per well were used). In all experiments, control mouse monoclonal IgM antibody (TEPC-183, from Sigma) was used in equivalent concentrations. Cell death was determined at different time points, using a commercial MTS kit (Promega, Madison. Wis.). Microplate wells were read by ELISA plate reader at 490 nm.
Additionally, pre-incubating RA targets with pertussis toxin reversed their resistance to Fas-mediated and γδ T cell-mediated killing (FIGS. 5D and 5E). […] Cell death was determined using the commercial MTS kit (Promega, Madison, Wis.). […] At the end of incubation, targets were washed and susceptibility to γδ T cell killing was determined using a 4 hr ^51Cr-release assay.
(In general: Tetrazolium dyes change colour on reduction, which living cells bring about.)

`CCCCCCCCCCCCCCC[C@H](O)[C@@H](N)CO` (racemic) [DHS, DL-threo-dihydrosphingosine]: the “resistance of RA targets to apoptosis by anti-Fas antibodies” value in experiment [1] is recorded as “effectively reversed”. For the same compound, in experiment [2] (prior incubation of target cells (2.5 μM DMS), 4 hr 51Cr release, FIG. 5C), the “resistance of RA targets to apoptosis by γδ T cells” value is on record as “effectively reversed”.
With `COc1cccc(-c2cc(=O)c3ccccc3o2)c1N` [PD098059, 2-(2′-amino3′-methoxyphenyl-oxanaphthalen-4-one)], the “resistance to Fas-mediated cell killing” value in experiment [3] is recorded as “reversed”.
Turning to `COC(=O)C[C@H](NC(=O)[C@H](C)NC(=O)[C@@H](NC(=O)OCc1ccccc1)C(C)C)C(=O)CF` [Z-VAD-fmk, N-benzyloxycarbonyl-Val-Ala-Asp(O-methyl)-fluromethylketone] (Cbz-Val-Ala-Asp(OMe)-CH2F), the “subsequent cell death after Fas ligation” value in experiment [4] is “blocks”. The “cleavage of PARP” value in experiment [4] (Western blot, FIG. 4A lower panel) is reported as “blocks”. Further, the “proteolytic processing of CPP32” value in experiment [4] (Western blot, FIG. 4A upper panel) was “blocks”.
Turning to pertussis toxin, the “resistance of RA targets to γδ T cell-mediated killing” value in experiment [2] (preincubation 1 μg/ml for 1 hr, 4 hr 51Cr-release, FIG. 5E) was “reversed”. Further, the “resistance of RA targets to Fas-mediated killing” value in experiment [5] is “reversed”.
